In US9169241B2, “Quinolinyloxyphenylsulfonamides” (Max-Planck-Gesellschaft Zur Forderung der Wissenschaften …, priority 2009, dated 2015):
Like-named read-outs stand apart in the source and are kept apart here.

Legend:
SF126 = assay: Apoptosis assay (Cellomics, nucleus condensation); type: cell-based; conditions: Homo sapiens, SF-126, Table III, read-out: Apoptosis induction in SF126
Procedure, shortened: (§1)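 5000 cells/well, Hoechst 33342 live stain; cpd 12.5, 6.25, 3.125, 1.56, 0.78, 0.39 μM or DMSO; imaged 24 h + 48 h; nuclear condensation = intensity variation per nucleus; cell number loss noted.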

Hs578T [1] = assay: Apoptosis assay (Cellomics, nucleus condensation); type: cell-based; conditions: Homo sapiens, Hs-578T, Table III, read-out: Apoptosis induction in Hs578T
Procedure, shortened: as §1

U118 = assay: Apoptosis assay (Cellomics, nucleus condensation); type: cell-based; conditions: Table III, read-out: Apoptosis induction in U118
Procedure, shortened: as §1

U138 = assay: Apoptosis assay (Cellomics, nucleus condensation); type: cell-based; conditions: Table III, read-out: Apoptosis induction in U138
Procedure, shortened: as §1

C8161 = assay: Apoptosis assay (Cellomics, nucleus condensation); type: cell-based; conditions: Homo sapiens, Table III, read-out: Apoptosis induction in C8161
Procedure, shortened: as §1

SF763 = assay: Apoptosis assay (Cellomics, nucleus condensation); type: cell-based; conditions: Table III, read-out: Apoptosis induction in SF763
Procedure, shortened: as §1

cells = assay: Boyden chamber migration assay (Table VI); type: cell-based; conditions: Homo sapiens, Hs-578T, 16 h, Hs578T cells; 16 h migration
Procedure, shortened: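 Migration read-out is a count of fixed cells on the underside of an […] insert membrane after 16 h. Chemoattractant was medium with 10% FCS in the lower chamber; 20000 cells started in serum-free medium with 0.1% BSA above, and those left on top were removed by swab.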

viable cells in culture = assay: Cell viability assay at 10 μM (CellTiter-Glo, Table VII); type: cell-based; conditions: compound 10 μM, 72 h;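 note: graded A 0-20%; B 21-40%; C 41-60%; D over 60% viable cells relative to DMSO control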
Procedure, shortened: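 Cells were seeded at 1000 cells/well in 96-well plates in 100 μl culture medium and incubated for 72 h with 10 μM compound or a DMSO control. ATP content, which reflects metabolically active and therefore viable cells, was then determined by CellTiter-Glo luminescence (Promega) per the manufacturer's instructions and expressed relative to the DMSO control.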

indicated cell line = assay: Wound healing migration assay (Table IV); type: cell-based; conditions: compounds at 12.5, 6.25, 3.125 μM, 48 h-72 h
Procedure, shortened: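 Compound exposure at 12.5, 6.25 and 3.125 μM, with DMSO control, on scratch-wounded monolayers (150000 cells/24 well, overnight). Wound closure imaged by microscopy, fixed with crystal violet after 48 h or 72 h depending on cell line; IC50 is the concentration giving 50% wound size between t0 and t48/t72.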

tumor cell = assay: Matrigel outgrowth assay/branching assay (Table Va); type: cell-based
Procedure, shortened: (§2)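 Cells (5000/well) were seeded onto polymerized 3 mg/ml Matrigel with compound at 3.125, 1.56 or 0.78 μM versus DMSO. Branching was imaged by inverted microscopy (5× objective) at 48, 72 and 96 h. Only concentrations giving total branching inhibition scored positive.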

Hs578T [2] = assay: Matrigel outgrowth assay/branching assay; type: cell-based; conditions: Homo sapiens, Hs-578T; HS578T cell line; Table Ib; read-out: Total branching inhibition in Matrigel HS578T
Procedure, shortened: as §2

[3] = Homo sapiens, HCT-116, HCT116 def, read-out: percentage (%) of viable cells HCT 116def
[4] = Homo sapiens, HCT-116, HCT116 wt, read-out: percentage (%) of viable cells HCT 116wt
[5] = Homo sapiens, HT-29, HT29, read-out: percentage (%) of viable cells HT29
[6] = Homo sapiens, NCI-H358, H358, read-out: percentage (%) of viable cells H358
[7] = Homo sapiens, NCI-H1650, H1650, read-out: percentage (%) of viable cells H1650
[8] = Homo sapiens, NCI-H1666, H1666, read-out: percentage (%) of viable cells H1666
[9] = Homo sapiens, NCI-H1975, H1975, read-out: percentage (%) of viable cells H1975
[10] = Homo sapiens, NCI-H1993, H1993, read-out: percentage (%) of viable cells H1993
[11] = Homo sapiens, A549, read-out: percentage (%) of viable cells A549
[12] = Homo sapiens, HCC827, read-out: percentage (%) of viable cells HCC827
[13] = Homo sapiens, SW480, read-out: percentage (%) of viable cells SW480
[14] = RKO, read-out: percentage (%) of viable cells RKO
[15] = Homo sapiens, C8161 cells, read-out: IC50 Wound healing Assay C8161
[16] = SF763 cells, read-out: IC50 Wound healing Assay SF763
[17] = Homo sapiens, C8161 cells, read-out: Total branching inhibition in Matrigel C8161
[18] = Homo sapiens, Hs-578T, Hs578T cells, read-out: Total branching inhibition in Matrigel Hs578T
[19] = U118 cells, read-out: Total branching inhibition in Matrigel U118
[20] = U138 cells, read-out: Total branching inhibition in Matrigel U138

SMILES | IC50 (SF126) | IC50 (Hs578T [1]) | IC50 (U118) | IC50 (U138) | IC50 (C8161) | IC50 (SF763) | IC50 (cells) | viability at 10 µM (viable cells in culture; [3]) | viability at 10 µM (viable cells in culture; [4]) | viability at 10 µM (viable cells in culture; [5]) | viability at 10 µM (viable cells in culture; [6]) | viability at 10 µM (viable cells in culture; [7]) | viability at 10 µM (viable cells in culture; [8]) | viability at 10 µM (viable cells in culture; [9]) | viability at 10 µM (viable cells in culture; [10]) | viability at 10 µM (viable cells in culture; [11]) | viability at 10 µM (viable cells in culture; [12]) | viability at 10 µM (viable cells in culture; [13]) | viability at 10 µM (viable cells in culture; [14]) | IC50 (indicated cell line; [15]) | further results
COc1cc2c(Oc3ccc(NS(=O)(=O)c4ccc(Cl)cc4F)cc3F)ccnc2cc1OCCCN1CCN(C)CC1 [Example 27, 4-Chloro-2-fluoro-N-(3-fluoro-4-{6-methoxy-7-[3-(4-methyl-piperazin-1-yl)-propoxy]-quinolin-4-yloxy}-phenyl)-benzenesulfonamide] | 12.5 to 50 µM | ≤ 12.5 µM | ≤ 12.5 µM | ≤ 12.5 µM | ≤ 12.5 µM | ≤ 12.5 µM | ≤ 5 µM | 0 to 20% | 0 to 20% | 21 to 40% | 0 to 20% | 41 to 60% | 41 to 60% | 21 to 40% | 0 to 20% | > 60% | > 60% | 0 to 20% | 0 to 20% | 12.5 to 50 µM | IC50 (indicated cell line; [16]): ≤ 12.5 µM; IC50 (tumor cell; [17]): ≤ 5 µM; IC50 (tumor cell; [18]): ≤ 5 µM; IC50 (tumor cell; [19]): ≤ 5 µM; IC50 (tumor cell; [20]): ≤ 5 µM; IC50 (Hs578T [2]): ≤ 10 µM; melting point: 106 to 110 °C
COc1cc2c(Oc3ccc(NS(=O)(=O)c4ccccc4C)cc3F)ccnc2cc1OCCCN1CCN(C)CC1 [Example 28, N-(3-Fluoro-4-{6-methoxy-7-[3-(4-methyl-piperazin-1-yl)-propoxy]-quinolin-4-yloxy}-phenyl)-2-methyl-benzenesulfonamide] | ≤ 12.5 µM | ≤ 12.5 µM | ≤ 12.5 µM | ≤ 12.5 µM | ≤ 12.5 µM | ≤ 12.5 µM | ≤ 5 µM | 21 to 40% | 21 to 40% | 21 to 40% | 0 to 20% | 21 to 40% | 41 to 60% | 21 to 40% | 21 to 40% | 21 to 40% | 21 to 40% | 0 to 20% | 0 to 20% | ≤ 12.5 µM | IC50 (indicated cell line; [16]): ≤ 12.5 µM; IC50 (tumor cell; [17]): ≤ 5 µM; IC50 (tumor cell; [18]): 5 to 50 µM; IC50 (tumor cell; [19]): ≤ 5 µM; IC50 (tumor cell; [20]): ≤ 5 µM; IC50 (Hs578T [2]): 10 to 25 µM; melting point: 73 to 75 °C
COc1cc2c(Oc3ccc(NS(=O)(=O)c4cc(Cl)cc(Cl)c4OC)cc3F)ccnc2cc1OCCCN1CCCC(C)C1 (centres unmarked) [Example 75, 3,5-Dichloro-N-(3-fluoro-4-{6-methoxy-7-[3-(3-methyl-piperidin-1-yl)-propoxy]-quinolin-4-yloxy}-phenyl)-2-methoxy-benzenesulfonamide] | ≤ 12.5 µM | ≤ 12.5 µM | ≤ 12.5 µM | ≤ 12.5 µM | ≤ 12.5 µM | ≤ 12.5 µM | ≤ 5 µM | 21 to 40% | 21 to 40% | 0 to 20% | 0 to 20% | 21 to 40% | 41 to 60% | 0 to 20% | 21 to 40% | > 60% | > 60% | 0 to 20% | 0 to 20% | 12.5 to 50 µM | IC50 (tumor cell; [17]): ≤ 5 µM; IC50 (tumor cell; [18]): ≤ 5 µM; IC50 (tumor cell; [19]): ≤ 5 µM; IC50 (tumor cell; [20]): 5 to 50 µM; IC50 (Hs578T [2]): ≤ 10 µM; melting point: 145 to 146 °C
COc1cc2c(Oc3ccc(NS(=O)(=O)c4cc(F)ccc4F)cc3F)ccnc2cc1OCCCCN1CCOCC1 [Example 83, 2,5-Difluoro-N-{3-fluoro-4-[6-methoxy-7-(4-morpholin-4-yl-butoxy)-quinolin-4-yloxy]-phenyl}-benzenesulfonamide] | ≤ 12.5 µM | ≤ 12.5 µM | ≤ 12.5 µM | ≤ 12.5 µM | ≤ 12.5 µM | ≤ 12.5 µM | ≤ 5 µM | 21 to 40% | 0 to 20% | 0 to 20% | 0 to 20% | 21 to 40% | 21 to 40% | 41 to 60% | 0 to 20% | 21 to 40% | 0 to 20% | 21 to 40% | > 60% | ≤ 12.5 µM | IC50 (indicated cell line; [16]): ≤ 12.5 µM; IC50 (tumor cell; [17]): ≤ 5 µM; IC50 (tumor cell; [18]): ≤ 5 µM; IC50 (tumor cell; [19]): ≤ 5 µM; IC50 (tumor cell; [20]): ≤ 5 µM; IC50 (Hs578T [2]): ≤ 10 µM; melting point: 156 to 158 °C
